Assay results as given in PubChem BioAssay AID652043 (Broad Institute, 2013).
Active and inactive are the calls of the source.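 How the source made its calls: active means fitted curve drops below -35% activity change at a concentration within twice the highest valid tested dose; inactive means activity opposite to the expected direction, or the rest.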

Tested on: not listed separately
Experiment: TNFa-induced canonical NF-kB eGFP reporter inhibition, dose response, selectivity assay for LMP1 NF-kB inhibitor project, cell-based, flow cytometry, eGFP/dsRED, dry powder (AID 652043)
Conditions: HEK293 TNFa-induced NF-kB eGFP reporter, flow cytometry, 16 h; at 18 µM (top of the series)
In the case of `Cc1cc(C(=O)Nc2ccc3c(c2)C(=O)N(C)[C@@H]2CC[C@H](CC(=O)NCc4ccc(-c5ccccc5)cc4)O[C@H]2CO3)no1`, the activity change, negative = inhibition was -3.35% (inactive).

Same assay, conditions: HEK293 TNFa-induced NF-kB eGFP reporter, flow cytometry, 16 h; at 19.5 µM (top of the series)
For `CN(C)c1ccc2c(c1)[C@@H]1C[C@@H](CC(=O)NCc3cccc(F)c3)O[C@@H](CO)[C@@H]1O2`, the activity change, negative = inhibition was -9.54% (inactive). For `COCCNC(=O)C[C@H]1CC[C@@H]2[C@H](COc3ccc(NC(=O)c4cc(C)on4)cc3C(=O)N2C)O1`, the activity change, negative = inhibition was -8.48% (inactive). With `CNC(=O)C[C@H]1CC[C@@H]2[C@H](COc3ccc(NC(=O)c4cc(C)on4)cc3C(=O)N2C)O1` the activity change, negative = inhibition was -1.72% (inactive). With `CN(C)c1ccc2c(c1)[C@@H]1C[C@@H](CC(=O)NCc3ccc(Oc4ccccc4)cc3)O[C@@H](CO)[C@@H]1O2` the activity change, negative = inhibition was -5.55% (inactive). In the case of `COc1ccccc1CNC(=O)C[C@@H]1C[C@H]2c3cc(N(C)C)ccc3O[C@H]2[C@H](CO)O1`, the activity change, negative = inhibition was -11.3% (inactive). For `CN(C)c1ccc2c(c1)[C@@H]1C[C@@H](CC(=O)NCc3ccncc3)O[C@@H](CO)[C@@H]1O2`, the activity change, negative = inhibition was 0.09% (inactive). In the case of `CN(C)c1ccc2c(c1)[C@@H]1C[C@@H](CC(=O)NCCc3ccccc3)O[C@@H](CO)[C@@H]1O2`, the activity change, negative = inhibition was -3.65% (inactive). For `CN(C)c1ccc2c(c1)[C@@H]1C[C@@H](CC(=O)NCc3ccc4c(c3)OCO4)O[C@@H](CO)[C@@H]1O2`, the activity change, negative = inhibition was -10.4% (inactive). In the case of `O=C(C[C@@H]1C[C@H]2c3cc(NS(=O)(=O)c4ccc(F)cc4)ccc3O[C@H]2[C@H](CO)O1)NCc1ccc(Oc2ccccc2)cc1`, the activity change, negative = inhibition was -4.18% (inactive). In the case of `CN(C)c1ccc2c(c1)[C@@H]1C[C@@H](CC(=O)NCC3CC3)O[C@@H](CO)[C@@H]1O2`, the activity change, negative = inhibition was -0.472% (inactive). With `CN1C(=O)c2cc(NS(C)(=O)=O)ccc2OC[C@@H]2O[C@@H](CC(=O)NCc3ccc(-c4ccccc4)cc3)CC[C@H]21` the activity change, negative = inhibition was -0.9% (inactive). For `CCNC(=O)C[C@H]1CC[C@@H]2[C@H](COc3ccc(NC(=O)c4cc(C)on4)cc3C(=O)N2C)O1`, the activity change, negative = inhibition was -0.229% (inactive). With `CN(C)c1ccc2c(c1)[C@@H]1C[C@@H](CC(=O)NC3CCCCC3)O[C@@H](CO)[C@@H]1O2` the activity change, negative = inhibition was -7.37% (inactive). In the case of `CN(C)c1ccc2c(c1)[C@@H]1C[C@@H](CC(=O)NCc3ccccn3)O[C@@H](CO)[C@@H]1O2`, the activity change, negative = inhibition was -11.4% (inactive). For `CN(C)c1ccc2c(c1)[C@@H]1C[C@@H](CC(=O)N3CCc4ccccc4C3)O[C@@H](CO)[C@@H]1O2`, the activity change, negative = inhibition was -1.46% (inactive). With `CCCNC(=O)C[C@H]1CC[C@@H]2[C@H](COc3ccc(NC(=O)c4cc(C)on4)cc3C(=O)N2C)O1` the activity change, negative = inhibition was -2.12% (inactive). For `COCCNC(=O)C[C@@H]1C[C@H]2c3cc(N(C)C)ccc3O[C@H]2[C@H](CO)O1`, the activity change, negative = inhibition was -5.65% (inactive).

Same assay, conditions: HEK293 TNFa-induced NF-kB eGFP reporter, flow cytometry, 16 h; at 21 µM (top of the series)
With `Cc1cc(C(=O)Nc2ccc3c(c2)C(=O)N(C)[C@@H]2CC[C@H](CC(=O)NCc4ccc(-c5ccccc5)cc4)O[C@@H]2CO3)no1` the activity change, negative = inhibition was -0.92% (inactive). In the case of `Cc1cc(C(=O)Nc2ccc3c(c2)C(=O)N(C)[C@@H]2CC[C@H](CC(=O)N[C@@H](C)c4ccccc4)O[C@H]2CO3)no1`, the activity change, negative = inhibition was -5.47% (inactive).

Tested on: HEK293 TNFa-induced NF-kB eGFP reporter, flow cytometry, 16 h
Experiment: as above
Conditions: not given
For `Nc1ccn([C@@H]2O[C@H](CO)[C@@H](O)C2O)c(=O)n1` (some centres not stated), the AC35 was 7.24 µM. `CN(C)c1ccc2c(c1)[C@@H]1C[C@@H](CC(=O)NCc3cc(F)ccc3F)O[C@@H](CO)[C@@H]1O2` gave an AC35 of 1.41 µM. Compound `O=C(C[C@@H]1C[C@H]2c3cc(NC(=O)Nc4ccccc4F)ccc3O[C@H]2[C@H](CO)O1)NCc1ccc(Oc2ccccc2)cc1` has an AC35 of 16.2 µM. In the case of `Cc1cc(C(=O)Nc2ccc3c(c2)C(=O)N(C)[C@@H]2CC[C@H](CC(=O)NC4CCCC4)O[C@H]2CO3)no1`, the AC35 was 10 µM. `O=C(Nc1ccc(C(F)(F)F)cc1)Nc1ccc2c(c1)[C@H]1C[C@@H](CC(=O)N3CCc4ccccc4C3)O[C@@H](CO)[C@H]1O2` gave an AC35 of 15.8 µM. With `CN(C)c1ccc2c(c1)[C@@H]1C[C@@H](CC(=O)N3CCOCC3)O[C@@H](CO)[C@@H]1O2` the AC35 was 1.95 µM. Compound `CN1C(=O)c2cc(NC(=O)Nc3ccccc3F)ccc2OC[C@@H]2O[C@@H](CC(=O)NCc3ccc(-c4ccccc4)cc3)CC[C@H]21` has an AC35 of 0.161 µM. For `Cc1cc(C(=O)Nc2ccc3c(c2)C(=O)N(C)[C@@H]2CC[C@H](CC(=O)N[C@H](C)c4ccccc4)O[C@H]2CO3)no1`, the AC35 was 18.1 µM. With `CS(=O)(=O)Nc1ccc2c(c1)[C@@H]1C[C@@H](CC(=O)NCc3ccc(Oc4ccccc4)cc3)O[C@@H](CO)[C@@H]1O2` the AC35 was 0.623 µM. `O=C(C[C@@H]1C[C@H]2c3cc(NC(=O)C4CCOCC4)ccc3O[C@H]2[C@H](CO)O1)NCc1ccc(Oc2ccccc2)cc1` showed an AC35 of 16.4 µM. With `O=C(C[C@@H]1C[C@H]2c3cc(NC(=O)NC4CCCC4)ccc3O[C@H]2[C@H](CO)O1)NCc1ccc(Oc2ccccc2)cc1` the AC35 was 8.04 µM. Work on `COc1ccccc1[C@]1(C)ON(c2ccccc2C(F)(F)F)C1=O` yielded an AC35 of 10.6 µM.
